Ki and percent antagonism of morphine-inhibited transport (M.P.E.) data for 26 compounds are collected here from patent US8536192B2, “6,7-unsaturated-7-carbamoyl substituted morphinan derivative” (priority 2005, dated 2013).

One test addresses opioid δ receptor (Rattus norvegicus (Rat), UniProt P33533). The test is described as follows: Binding assay of opioid δ receptor ([3H]-DADLE, rat cerebrum membrane). How it is done:
(§1) 1) Method of Preparing Membrane Specimen for Binding Assay
(§2) A rat cerebrum (Slc: SD) which had been stored at −80° C. was used. To a cerebrum which had been weighed was added a 20-fold amount of ice-cooled 10 mM Tris-HCl buffer (pH 7.0), and the mixture was homogenized (25000 rpm, 30 seconds) with Histocolon (NITI-ON), and centrifuged at 36600×g for 20 minutes. To the resulting pellet was added 15 ml of the same buffer, and the mixture was treated with Histocolon similarly, and centrifuged. This washing work was performed two times. After centrifugation, to the resulting pellet was added 15 mL of a 50 mM Tris-HCl buffer (pH 7.4), and this was treated with Histocolon, and finally resuspended in a 10-fold amount of the same buffer, which was used as a crude membrane fraction (Life Sci. 48, 111-116, 1991). The prepared membrane specimen was frozen and stored at −80° C., and at an assay, the specimen was rapidly thawed, and diluted to about 900 μg/mL with a 50 mM Tris-HCl buffer (pH 7.4) after the centrifugation and Histocolon treatment, and was used in an experiment. For measuring a protein concentration of the membrane specimen, Micro BCA Protein Assay Kit (PIERCE) was used.
2) Method of δ Receptor Binding Assay and Data Analysis
Into a tube was placed 480 μl of a rat cerebrum membrane fraction to which 100 mM choline chloride, 3 mM MnCl2 and 100 nM DAMGO had been added, and this was incubated at 25° C. for 2 hours. […] After washing, the filter was transferred to a mini vial for liquid scintillation counter, 5 mL of a scintillator (Cleasol I) was added, this was allowed to stand overnight, and the radioactivity was measured for 3 minutes with a liquid scintillation counter Tri-Carb 2200CA (PACKARD).

A further test deals with opioid μ receptor (Rattus norvegicus (Rat), UniProt P33535). The test is described as follows: Binding assay to opioid μ receptor ([3H]-DAMGO, rat cerebrum membrane). How it is done: as §1
as §2, with “(pH 7.0), the mixture” for “(pH 7.0), and the mixture”, “(pH 7.4), this was” for “(pH 7.4), and this was”, “Histocolon, and this was finally resuspended” for “Histocolon, and finally resuspended”, “and at a test, the specimen” for “and at an assay, the specimen”
2) Method of μ Receptor Binding Assay and Data Analysis
After washing, the filter was transferred to a mini vial for liquid scintillation counter, 5 mL of a scintillator (Cleasol I) was added, and this was allowed to stand overnight, and the radioactivity was measured for 3 minutes with a liquid scintillation counter Tri-Carb 2200CA (PACKARD).

For test [1], the system named is carbon powder transport of inhibitory activity by morphine. The test is described as follows: Mouse carbon powder transport assay (antagonism of morphine-inhibited small intestine transport). The format is in vivo. Conditions: sc, 1 h, test compound 3 mg/kg subcutaneously, 15 minutes before morphine 3 mg/kg. How it is done: 1) Preparation of Test Diet (Carbon Powder)
Using a 10 w/v % arabic gum aqueous solution, a 5 w/v % active carbon solution was prepared, which was used as a test diet.
A ddY line male mouse (5 to 6 weeks old) was used. The mouse was fasted from about 20 or more hours before assay initiation, and water was given ad lib.
The test compound was dissolved in a solvent (DMAA/Solutol/5% meglumine=15/15/70).
Morphine hydrochloride was dissolved in a physiological saline. The test compound, the above solvent and morphine were all administered at a liquid amount of 10 mL/kg.
The test compound 3 mg/kg (test compound administration group) or the solvent (solvent administration group) were subcutaneously administered and, after 15 minutes, amount of 3 mg/kg of morphine was administered to all groups. As a control group, the solvent was subcutaneously administered and, after 15 minutes, a physiological saline was administered.
The test diet 10 mL/kg was orally administered at 15 minutes after administration of morphine. At thirty minutes after administration of the test diet (60 minutes after administration of the test substance), all mice were isolated from esophagus to an ileocecal part near a stomach cardia part. A distance from pyloric part of the stomach to an ileocecal part (full length of small intestine) and a distance until a carbon powder reaching front part (carbon powder movement distance) were measured. The antagonistic activity on the carbon powder transport of inhibitory activity by morphine was calculated as MPE (%) using the following equation. Transport rate (%)=(carbon powder movement distance)/full length of small intestine (cm))×100 M.P.E. (%)={(small intestine transport rate (%) of each individual of test compound administration group−average small intestine transport rate (%) of solvent administration group)/(average small intestine transport rate (%) of control group−average small intestine transport rate (%) of solvent administration group)}×100

Where [2] appears, read: [3H]-DADLE, rat cerebrum membrane fraction, read-out: Ki.
[3] abbreviates: [3H]-DAMGO, rat cerebrum membrane fraction, read-out: Ki.

pKi: −log10 of the molar value. Read-outs that look alike come from different tables or passages of the source.

As a reminder, the pKi is the Ki on a negative log10 scale, so that one unit is a factor of ten. Regarding `CCCCNC(=O)C1=C(O)[C@@H]2Oc3c(O)ccc4c3[C@@]23CCN(CC2CC2)[C@H](C4)[C@]3(O)C1` [Compound I-3], on opioid δ receptor, the pKi was 8.06.
Regarding `CC(C)NC(=O)C1=C(O)[C@@H]2Oc3c(O)ccc4c3[C@@]23CCN(CC2CC2)[C@H](C4)[C@]3(O)C1` [Compound I-4, 7-Isopropylaminocarbonylnaltrexone], the figures for the pKi at opioid δ receptor and on opioid μ receptor were 8.13 and 8.29, respectively.
With `O=C(C1=C(O)[C@@H]2Oc3c(O)ccc4c3[C@@]23CCN(CC2CC2)[C@H](C4)[C@]3(O)C1)N1CCCC1` [Compound I-7], at opioid δ receptor, the pKi was 8.13.
Turning to `O=C(Nc1ccccc1)C1=C(O)[C@@H]2Oc3c(O)ccc4c3[C@@]23CCN(CC2CC2)[C@H](C4)[C@]3(O)C1` [Compound I-10], the values for the pKi at opioid δ receptor and at opioid μ receptor were 7.70 and 8.39, respectively.
`CN(Cc1ccccc1)C(=O)C1=C(O)[C@@H]2Oc3c(O)ccc4c3[C@@]23CCN(CC2CC2)[C@H](C4)[C@]3(O)C1` [Compound I-13]: the pKi on opioid δ receptor was 8.30.
Same read-out and setting: next, `O=C(NCCOc1ccccc1)C1=C(O)[C@@H]2Oc3c(O)ccc4c3[C@@]23CCN(CC2CC2)[C@H](C4)[C@]3(O)C1` [Compound I-30]: 8.27.
On to `CN(C)c1ccc(NC(=O)C2=C(O)[C@@H]3Oc4c(O)ccc5c4[C@@]34CCN(CC3CC3)[C@H](C5)[C@]4(O)C2)cc1` [Compound I-39], for which the pKi at opioid δ receptor was 7.38; on opioid μ receptor, 9.48. For the same compound, the percent antagonism of morphine-inhibited transport (M.P.E.) at 3 mg/kg in test [1] was found to be 52%.
As to `COC(=O)C(C)(C)NC(=O)C1=C(O)[C@@H]2Oc3c(O)ccc4c3[C@@]23CCN(CC2CC2)[C@H](C4)[C@]3(O)C1` [Compound I-49], the pKi was 8.40 at opioid δ receptor (setting [2]) and 7.78 on opioid μ receptor. Also, the percent antagonism of morphine-inhibited transport (M.P.E.) at 3 mg/kg in test [1] worked out at 80%.
Consider `O=C(Nc1cccnc1)C1=C(O)[C@@H]2Oc3c(O)ccc4c3[C@@]23CCN(CC2CC2)[C@H](C4)[C@]3(O)C1` [Compound I-92], for which the pKi on opioid δ receptor is 8.28.
As to `COc1ccc(NC(=O)C2=C(O)[C@@H]3Oc4c(O)ccc5c4[C@@]34CCN(CC3CC3)[C@H](C5)[C@]4(O)C2)cn1` [Compound I-118], in test [1], the percent antagonism of morphine-inhibited transport (M.P.E.) at 3 mg/kg was 55.6%.
With `O=C(NS(=O)(=O)c1cccc(Cl)c1)C1=C(O)[C@@H]2Oc3c(O)ccc4c3[C@@]23CCN(CC2CC2)[C@H](C4)[C@]3(O)C1` [Compound I-122], at opioid μ receptor (setting [3]), the pKi is 8.57. The percent antagonism of morphine-inhibited transport (M.P.E.) at 3 mg/kg in test [1] turned out to be 31.5%.
The matching figures for `COc1ccc(S(=O)(=O)NC(=O)C2=C(O)[C@@H]3Oc4c(O)ccc5c4[C@@]34CCN(CC3CC3)[C@H](C5)[C@]4(O)C2)cc1` [Compound I-123]: 8.77 and 44.1%.
For the compound `O=C(NS(=O)(=O)c1ccc(F)cc1)C1=C(O)[C@@H]2Oc3c(O)ccc4c3[C@@]23CCN(CC2CC2)[C@H](C4)[C@]3(O)C1` [Compound I-124], the pKi on opioid μ receptor (read-out: Ki) is 8.41. The percent antagonism of morphine-inhibited transport (M.P.E.) at 3 mg/kg in test [1] was 46.6%.
For `COC(=O)C1(NC(=O)C2=C(O)[C@@H]3Oc4c(O)ccc5c4[C@@]34CCN(CC3CC3)[C@H](C5)[C@]4(O)C2)CCCC1` [Compound I-133], the results for the pKi on opioid δ receptor (setting [2]) and on opioid μ receptor (setting [3]) were 8.01 and 8.30, respectively. Besides, in test [1], the percent antagonism of morphine-inhibited transport (M.P.E.) at 3 mg/kg stood at 107%.
Turning to `COC(=O)C1(NC(=O)C2=C(O)[C@@H]3Oc4c(O)ccc5c4[C@@]34CCN(CC3CC3)[C@H](C5)[C@]4(O)C2)CC1` [Compound I-135], the results for the pKi at opioid δ receptor (read-out: Ki) and at opioid μ receptor (read-out: Ki) were 8.01 and 8.80, respectively. The percent antagonism of morphine-inhibited transport (M.P.E.) at 3 mg/kg in test [1] was determined as 59.7%.
Regarding `Cc1cc(NC(=O)C2=C(O)[C@@H]3Oc4c(O)ccc5c4[C@@]34CCN(CC3CC3)[C@H](C5)[C@]4(O)C2)on1` [Compound I-138], the pKi at opioid μ receptor (setting [3]) is 7.81. In test [1], the percent antagonism of morphine-inhibited transport (M.P.E.) at 3 mg/kg amounted to 55.8%.
Take `O=C(N[C@H]1CCOC1=O)C1=C(O)[C@@H]2Oc3c(O)ccc4c3[C@@]23CCN(CC2CC2)[C@H](C4)[C@]3(O)C1` [Compound I-145]: the pKi on opioid δ receptor (setting [2]) is 7.86; on opioid μ receptor (setting [3]), 7.55. Moreover, the percent antagonism of morphine-inhibited transport (M.P.E.) at 3 mg/kg in test [1] was determined as 60.2%.
Regarding `O=C(Nc1cccc(C(=O)O)c1)C1=C(O)[C@@H]2Oc3c(O)ccc4c3[C@@]23CCN(CC2CC2)[C@H](C4)[C@]3(O)C1` [Compound I-188], the pKi on opioid δ receptor was 8.52; at opioid μ receptor, 7.76. In addition, the percent antagonism of morphine-inhibited transport (M.P.E.) at 3 mg/kg in test [1] is 74.6%.
For `COC(=O)C1(NC(=O)C2=C(O)[C@@H]3Oc4c(O)ccc5c4[C@@]34CCN(CC3CC3)[C@H](C5)[C@]4(O)C2)CCC1` [Compound I-199] the same measures were 7.89, 8.02 and 62.8%.
For `O=C(Nc1ccc([N+](=O)[O-])cn1)C1=C(O)[C@@H]2Oc3c(O)ccc4c3[C@@]23CCN(CC2CC2)[C@H](C4)[C@]3(O)C1` [Compound I-208] the same measures were 7.88, 8.23 and 81.2%.
In the case of `CCN(CC)S(=O)(=O)c1ccc(OC)c(NC(=O)C2=C(O)[C@@H]3Oc4c(O)ccc5c4[C@@]34CCN(CC3CC3)[C@H](C5)[C@]4(O)C2)c1` [Compound I-229], the pKi is 8.23 on opioid δ receptor and 8.89 on opioid μ receptor (setting [3]). Also, the percent antagonism of morphine-inhibited transport (M.P.E.) at 3 mg/kg in test [1] amounted to 39.7%.
For `Cc1cc(=O)[nH]c2cc(NC(=O)C3=C(O)[C@@H]4Oc5c(O)ccc6c5[C@@]45CCN(CC4CC4)[C@H](C6)[C@]5(O)C3)ccc12` [Compound I-240] the same measures were 7.94, 8.16 and 36.3%.
Take `COc1cc(NC(=O)C2=C(O)[C@@H]3Oc4c(O)ccc5c4[C@@]34CCN(CC3CC3)[C@H](C5)[C@]4(O)C2)ncn1` [Compound I-243]: the pKi at opioid δ receptor and on opioid μ receptor was 8.28 throughout. Besides, the percent antagonism of morphine-inhibited transport (M.P.E.) at 3 mg/kg in test [1] was determined as 52.6%.
In the case of `CC(C)NC(=O)C1=C(NS(=O)(=O)c2ccc(Cl)cc2)[C@@H]2Oc3c(O)ccc4c3[C@@]23CCN(CC2CC2)[C@H](C4)[C@]3(O)C1` [Compound I-244], the percent antagonism of morphine-inhibited transport (M.P.E.) at 3 mg/kg in test [1] turned out to be 71.6%.
As to `Cc1ccc2nc(=O)c3c(n2c1)[C@@H]1Oc2c(O)ccc4c2[C@@]12CCN(CC1CC1)[C@H](C4)[C@]2(O)C3` [Compound I-267], the pKi at opioid δ receptor (setting [2]) was 7.38; on opioid μ receptor (setting [3]) it was 9.08. Moreover, in test [1], the percent antagonism of morphine-inhibited transport (M.P.E.) at 3 mg/kg was 60%.
With `COCC1(NC(=O)C2=C(O)[C@@H]3Oc4c(O)ccc5c4[C@@]34CCN(CC3CC3)[C@H](C5)[C@]4(O)C2)CC1` [Compound I-283], the pKi at opioid δ receptor is 8.43; at opioid μ receptor, 7.70. Besides, the percent antagonism of morphine-inhibited transport (M.P.E.) at 3 mg/kg in test [1] came to 63.7%.
